Assay results reported in US11389385B2, “Resorcinol derivatives for their cosmetic use” (L'OREAL, priority 2017, dated 2022).
Where two headings read alike, the source gives them in different places.

Assays:
normal human melanocytes = assay: Depigmenting activity: reduction of melanin production in normal human melanocytes in vitro; assay type: cell-based; details: Melanocyte, 72 h, 72 hours incubation, maximum concentration tested 200 μM, read-out: IC50 (concentration at which a 50% decrease in melanin synthesis is achieved)
Description: The measurement of the depigmenting activity (reduction of melanin production) of compounds of formula (I) was performed by assaying normal human melanocytes in vitro as follows.
First, normal human melanocytes are cultured and distributed in a multiwell plate. After 24 hours, the culture medium was replaced with a medium containing the compounds of formula (I) to be evaluated. The cells were incubated 72 hours before measurement of the final optical density, which measures the amount of melanin produced by the melanocytes. A dose effect was performed using a wide concentration range of the compounds evaluated. Thus, by making the concentrations and the melanin measurements correspond, it was possible to determine an IC50 in μM: concentration at which a 50% decrease in melanin synthesis is achieved.
Various test campaigns were conducted and the test results are collated in the tables below.

[1] = test system: coculture of keratinocytes and melanocytes; assay: Coculture experiment: melanogenesis-modulating effect and cytotoxicity; assay type: cell-based; details: for IC50: melanin optical density, read-out: IC50 (concentration for which 50% of the melanin synthesis is inhibited)
Description: The melanogenesis-modulating effect of compound D was measured according to the method described in patent FR-A-2734825, and also in the article by R. Schmidt, P. Krien and M. Régnier, Anal. Biochem., 235(2), 113-18, 1996. This test is performed on a coculture of keratinocytes and melanocytes.
For the test compounds, the following were determined: • the cytotoxicity, • the inhibitory activity on melanin synthesis, by estimating the melanin optical density.
The IC50 values (concentration for which 50% of the melanin synthesis is inhibited) were determined.
The test was also performed with the compound 5-[(E)-2-(4-hydroxyphenyl)ethenyl]benzene-1,3-diol described in the prior art patent application JP01038009,

[2] = values marked *: different campaigns each time
[3] = coculture of keratinocytes and melanocytes

SMILES: CC(Cc1ncc[nH]1)c1ccc(O)cc1O (stereo not shown) [Compound A, 4-[1-(1H-imidazol-2-yl)propan-2-yl]benzene-1,3-diol]
- IC50 (normal human melanocytes; [2]): 3.7 µM

SMILES: CC(Cc1nccs1)c1ccc(O)cc1O (stereo not shown) [Compound B, 4-[1-(1,3-thiazol-2-yl)propan-2-yl]benzene-1,3-diol]
- IC50 (normal human melanocytes; melanin by optical density): 5.9 µM
- IC50 (normal human melanocytes; [2]): 1.07 µM

SMILES: CC(Cc1nc2ccccc2[nH]1)c1ccc(O)cc1O (stereo not shown) [Compound D, 4-[1-(1H-benzimidazol-2-yl)propan-2-yl]benzene-1,3-diol]
- IC50 (normal human melanocytes; melanin by optical density): 3.7 µM
- IC50 (normal human melanocytes; [2]): 6.7 µM
- cytotoxicity [1]: non-cytotoxic
- IC50 [1, 3]: 1.38 µM

SMILES: Oc1ccc(/C=C/c2cc(O)cc(O)c2)cc1 [Compound of the prior art, 5-[(E)-2-(4-hydroxyphenyl)ethenyl]benzene-1,3-diol, reference compound]
- IC50 (normal human melanocytes; melanin by optical density): 8.18 µM
- cytotoxicity [1, 3]: Non-cytotoxic
- IC50 [1, 3]: 2.77 µM
